{"source": "paper PMC10866072", "about": "“Design, synthesis, molecular modelling and biological evaluation of novel 6-amino-5-cyano-2-thiopyrimidine derivatives as potent anticancer agents against leukemia and apoptotic inducers” (Journal of Enzyme Inhibition and Medicinal Chemistry, 2024)", "key": {"[1]": {"system": "CCRF-CEM", "assay_type": "cell-based", "settings": "one dose 10^-5 M, 48 h"}, "[2]": {"system": "HL-60(TB)", "assay_type": "cell-based", "settings": "one dose 10^-5 M, 48 h"}, "[3]": {"system": "K-562", "assay_type": "cell-based", "settings": "one dose 10^-5 M, 48 h"}, "[4]": {"system": "MOLT-4", "assay_type": "cell-based", "settings": "one dose 10^-5 M, 48 h"}, "[5]": {"system": "RPMI-8226", "assay_type": "cell-based", "settings": "one dose 10^-5 M, 48 h"}, "[6]": {"system": "SR", "assay_type": "cell-based", "settings": "one dose 10^-5 M, 48 h"}, "[7]": {"system": "A549/ATCC", "assay_type": "cell-based", "settings": "one dose 10^-5 M, 48 h"}, "[8]": {"system": "EKVX", "assay_type": "cell-based", "settings": "one dose 10^-5 M, 48 h"}, "[9]": {"system": "HOP-62", "assay_type": "cell-based", "settings": "one dose 10^-5 M, 48 h"}, "[10]": {"system": "HOP-92", "assay_type": "cell-based", "settings": "one dose 10^-5 M, 48 h"}, "[11]": {"system": "NCI-H226", "assay_type": "cell-based", "settings": "one dose 10^-5 M, 48 h"}, "[12]": {"system": "NCI-H23", "assay_type": "cell-based", "settings": "one dose 10^-5 M, 48 h"}, "[13]": {"system": "NCI-H460", "assay_type": "cell-based", "settings": "one dose 10^-5 M, 48 h"}, "[14]": {"system": "NCI-H522", "assay_type": "cell-based", "settings": "one dose 10^-5 M, 48 h"}, "[15]": {"system": "HCC-2998", "assay_type": "cell-based", "settings": "one dose 10^-5 M, 48 h"}, "[16]": {"system": "HCT-116", "assay_type": "cell-based", "settings": "one dose 10^-5 M, 48 h"}, "[17]": {"system": "HCT-15", "assay_type": "cell-based", "settings": "one dose 10^-5 M, 48 h"}, "[18]": {"system": "HT29", "assay_type": "cell-based", "settings": "one dose 10^-5 M, 48 h"}, "[19]": {"system": "KM12", "assay_type": "cell-based", "settings": "one dose 10^-5 M, 48 h"}, "[20]": {"system": "SW-620", "assay_type": "cell-based", "settings": "one dose 10^-5 M, 48 h"}, "[21]": {"system": "SF-268", "assay_type": "cell-based", "settings": "one dose 10^-5 M, 48 h"}, "[22]": {"system": "SF-295", "assay_type": "cell-based", "settings": "one dose 10^-5 M, 48 h"}, "[23]": {"system": "SF-539", "assay_type": "cell-based", "settings": "one dose 10^-5 M, 48 h"}, "[24]": {"system": "SNB-19", "assay_type": "cell-based", "settings": "one dose 10^-5 M, 48 h"}, "[25]": {"system": "SNB-75", "assay_type": "cell-based", "settings": "one dose 10^-5 M, 48 h"}, "[26]": {"system": "U251", "assay_type": "cell-based", "settings": "one dose 10^-5 M, 48 h"}, "[27]": {"system": "LOX IMVI", "assay_type": "cell-based", "settings": "one dose 10^-5 M, 48 h"}, "[28]": {"system": "MALME-3M", "assay_type": "cell-based", "settings": "one dose 10^-5 M, 48 h"}, "[29]": {"system": "M14", "assay_type": "cell-based", "settings": "one dose 10^-5 M, 48 h"}, "[30]": {"system": "MDA-MB-435", "assay_type": "cell-based", "settings": "one dose 10^-5 M, 48 h"}, "[31]": {"system": "SK-MEL-2", "assay_type": "cell-based", "settings": "one dose 10^-5 M, 48 h"}, "[32]": {"system": "SK-MEL-28", "assay_type": "cell-based", "settings": "one dose 10^-5 M, 48 h"}, "[33]": {"system": "SK-MEL-5", "assay_type": "cell-based", "settings": "one dose 10^-5 M, 48 h"}, "[34]": {"system": "UACC-257", "assay_type": "cell-based", "settings": "one dose 10^-5 M, 48 h"}, "[35]": {"system": "UACC-62", "assay_type": "cell-based", "settings": "one dose 10^-5 M, 48 h"}, "[36]": {"system": "IGROV1", "assay_type": "cell-based", "settings": "one dose 10^-5 M, 48 h"}, "[37]": {"system": "OVCAR-3", "assay_type": "cell-based", "settings": "one dose 10^-5 M, 48 h"}, "[38]": {"system": "OVCAR-4", "assay_type": "cell-based", "settings": "one dose 10^-5 M, 48 h"}, "[39]": {"system": "OVCAR-5", "assay_type": "cell-based", "settings": "one dose 10^-5 M, 48 h"}, "[40]": {"system": "OVCAR-8", "assay_type": "cell-based", "settings": "one dose 10^-5 M, 48 h"}, "[41]": {"system": "SK-OV-3", "assay_type": "cell-based", "settings": "one dose 10^-5 M, 48 h"}, "[42]": {"system": "786-0", "assay_type": "cell-based", "settings": "one dose 10^-5 M, 48 h"}, "[43]": {"system": "A498", "assay_type": "cell-based", "settings": "one dose 10^-5 M, 48 h"}, "[44]": {"system": "ACHN", "assay_type": "cell-based", "settings": "one dose 10^-5 M, 48 h"}, "[45]": {"system": "CAKI-1", "assay_type": "cell-based", "settings": "one dose 10^-5 M, 48 h"}, "[46]": {"system": "RXF 393", "assay_type": "cell-based", "settings": "one dose 10^-5 M, 48 h"}, "[47]": {"system": "SN12C", "assay_type": "cell-based, human", "settings": "one dose 10^-5 M, 48 h"}, "[48]": {"system": "TK-10", "assay_type": "cell-based", "settings": "one dose 10^-5 M, 48 h"}, "[49]": {"system": "UO-31", "assay_type": "cell-based", "settings": "one dose 10^-5 M, 48 h"}, "[50]": {"system": "PC-3", "assay_type": "cell-based", "settings": "one dose 10^-5 M, 48 h"}, "[51]": {"system": "DU-145", "assay_type": "cell-based", "settings": "one dose 10^-5 M, 48 h"}, "[52]": {"system": "MCF7", "assay_type": "cell-based", "settings": "one dose 10^-5 M, 48 h"}, "[53]": {"system": "MDA-MB-231/ATCC", "assay_type": "cell-based", "settings": "one dose 10^-5 M, 48 h"}, "[54]": {"system": "HS 578T", "assay_type": "cell-based", "settings": "one dose 10^-5 M, 48 h; HS 578T"}, "[55]": {"system": "T-47D", "assay_type": "cell-based", "settings": "one dose 10^-5 M, 48 h"}, "[56]": {"system": "MDA-MB-468", "assay_type": "cell-based", "settings": "one dose 10^-5 M, 48 h"}, "[57]": {"system": "full NCI 60 cell lines panel"}}, "data": [{"substance": "3-Amino-4–(4-chlorophenyl)-1H-pyrazolo[3,4-d] pyrimidine-6-thiol [Compound 3b]", "values": [{"measurement": "% growth", "setting": "[1]", "result": 92.49, "unit": "%"}, {"measurement": "% growth", "setting": "[2]", "result": 82.04, "unit": "%"}, {"measurement": "% growth", "setting": "[3]", "result": 94.65, "unit": "%"}, {"measurement": "% growth", "setting": "[4]", "result": 92.74, "unit": "%"}, {"measurement": "% growth", "setting": "[5]", "result": 90.84, "unit": "%"}, {"measurement": "% growth", "setting": "[6]", "result": 91.21, "unit": "%"}, {"measurement": "% growth", "setting": "[7]", "result": 100.87, "unit": "%"}, {"measurement": "% growth", "setting": "[8]", "result": 96.85, "unit": "%"}, {"measurement": "% growth", "setting": "[9]", "result": 106.23, "unit": "%"}, {"measurement": "% growth", "setting": "[10]", "result": 100.46, "unit": "%"}, {"measurement": "% growth", "setting": "[11]", "result": 107.48, "unit": "%"}, {"measurement": "% growth", "setting": "[12]", "result": 103.30, "unit": "%"}, {"measurement": "% growth", "setting": "[13]", "result": 107.05, "unit": "%"}, {"measurement": "% growth", "setting": "[14]", "result": 84.30, "unit": "%"}, {"measurement": "% growth", "setting": "[15]", "result": 100.20, "unit": "%"}, {"measurement": "% growth", "setting": "[16]", "result": 102.04, "unit": "%"}, {"measurement": "% growth", "setting": "[17]", "result": 103.06, "unit": "%"}, {"measurement": "% growth", "setting": "[18]", "result": 95.28, "unit": "%"}, {"measurement": "% growth", "setting": "[19]", "result": 100.80, "unit": "%"}, {"measurement": "% growth", "setting": "[20]", "result": 102.78, "unit": "%"}, {"measurement": "% growth", "setting": "[21]", "result": 103.53, "unit": "%"}, {"measurement": "% growth", "setting": "[22]", "result": 89.90, "unit": "%"}, {"measurement": "% growth", "setting": "[23]", "result": 98.83, "unit": "%"}, {"measurement": "% growth", "setting": "[24]", "result": 92.80, "unit": "%"}, {"measurement": "% growth", "setting": "[25]", "result": 94.54, "unit": "%"}, {"measurement": "% growth", "setting": "[26]", "result": 101.98, "unit": "%"}, {"measurement": "% growth", "setting": "[27]", "result": 103.05, "unit": "%"}, {"measurement": "% growth", "setting": "[28]", "result": 100.39, "unit": "%"}, {"measurement": "% growth", "setting": "[29]", "result": 107.99, "unit": "%"}, {"measurement": "% growth", "setting": "[30]", "result": 98.24, "unit": "%"}, {"measurement": "% growth", "setting": "[31]", "result": 108.20, "unit": "%"}, {"measurement": "% growth", "setting": "[32]", "result": 107.34, "unit": "%"}, {"measurement": "% growth", "setting": "[33]", "result": 95.82, "unit": "%"}, {"measurement": "% growth", "setting": "[34]", "result": 106.44, "unit": "%"}, {"measurement": "% growth", "setting": "[35]", "result": 100.93, "unit": "%"}, {"measurement": "% growth", "setting": "[36]", "result": 96.70, "unit": "%"}, {"measurement": "% growth", "setting": "[37]", "result": 113.31, "unit": "%"}, {"measurement": "% growth", "setting": "[38]", "result": 98.54, "unit": "%"}, {"measurement": "% growth", "setting": "[39]", "result": 108.35, "unit": "%"}, {"measurement": "% growth", "setting": "[40]", "result": 104.96, "unit": "%"}, {"measurement": "% growth", "setting": "[41]", "result": 106.45, "unit": "%"}, {"measurement": "% growth", "setting": "[42]", "result": 99.34, "unit": "%"}, {"measurement": "% growth", "setting": "[43]", "result": 109.21, "unit": "%"}, {"measurement": "% growth", "setting": "[44]", "result": 102.63, "unit": "%"}, {"measurement": "% growth", "setting": "[45]", "result": 93.47, "unit": "%"}, {"measurement": "% growth", "setting": "[46]", "result": 103.75, "unit": "%"}, {"measurement": "% growth", "setting": "[47]", "result": 97.55, "unit": "%"}, {"measurement": "% growth", "setting": "[48]", "result": 114.88, "unit": "%"}, {"measurement": "% growth", "setting": "[49]", "result": 92.69, "unit": "%"}, {"measurement": "% growth", "setting": "[50]", "result": 101.93, "unit": "%"}, {"measurement": "% growth", "setting": "[51]", "result": 101.49, "unit": "%"}, {"measurement": "% growth", "setting": "[52]", "result": 94.30, "unit": "%"}, {"measurement": "% growth", "setting": "[53]", "result": 98.65, "unit": "%"}, {"measurement": "% growth", "setting": "[54]", "result": 111.10, "unit": "%"}, {"measurement": "% growth", "setting": "[55]", "result": 86.49, "unit": "%"}, {"measurement": "% growth", "setting": "[56]", "result": 106.46, "unit": "%"}, {"measurement": "activity on all 60 cancer cell lines tested (in words)", "setting": "[57]; one dose", "result": "weak activity"}, {"measurement": "Mean % growth", "setting": "[57]; one dose 10^-5 M, 48 h, mean over all cell lines", "result": 100.23, "unit": "%"}]}]}
